Measurements from article PMC3532212 (PLoS ONE, 2012).

Experiments:
[1] = molecular target: T1, human S1P4 (Homo sapiens, UniProt O95977); assay: B arrestin recruitment assay, Tango EDG6-bla U2OS cells; assay type: cell-based; conditions: B arrestin, 18 hours agonist incubation
T1 construct: host or cells: U2OS (Tango EDG6-bla)
T1 sequence (O95977 1-384): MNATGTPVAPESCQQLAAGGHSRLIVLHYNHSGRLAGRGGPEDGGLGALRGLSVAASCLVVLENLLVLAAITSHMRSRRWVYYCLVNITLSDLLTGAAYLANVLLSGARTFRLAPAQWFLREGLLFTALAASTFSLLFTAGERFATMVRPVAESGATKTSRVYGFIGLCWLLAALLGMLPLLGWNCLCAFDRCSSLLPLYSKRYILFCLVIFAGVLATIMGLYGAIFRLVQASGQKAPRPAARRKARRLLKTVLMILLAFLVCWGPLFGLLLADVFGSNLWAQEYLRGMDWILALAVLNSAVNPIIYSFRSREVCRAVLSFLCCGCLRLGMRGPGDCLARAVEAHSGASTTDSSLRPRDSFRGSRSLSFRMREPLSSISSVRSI
Experimental: Tango™ EDG1-bla U2OS cells (Human S1P1), Tango™ EDG3-bla U2OS cells (human S1P3), Tango™ EDG6-bla U2OS cells (human S1P4) and Tango™ EDG8-bla U2OS cells (human S1P5) cell lines were cultured and assayed according to manufacturers instructions with one modification; agonists incubated on the cells for 18 hours prior to addition of the GenBlazer substrate. Final DMSO concentration in the assay is 1%.

[2] = Plasma concentrations during escalating i.v. infusion in anesthetized rats; assay type: in vivo; conditions: anesthetized rat, FTY720 i.v.
Experimental: The cardiovascular effects of FTY720 and BAF312 were tested in anesthetized rats (180–200 g). In brief, male Sprague Dawley rats (Charles River) were anesthetized with Inactin (110 mg/kg i.p.) and a tracheotomy performed. The femoral artery and veins were catheterized for measurement of mean arterial pressure and heart rate, collection of blood samples at 20-min intervals (0.2 mL/sample), and for compound infusion/hydration as previously described, [24]; blood samples were also withdrawn in vehicle-treated control rats. FTY720, infused as a hydrochloride salt (0.1, 0.3, 1.0 mg/kg/20-min free base equivalent solubilized in a 100% PEG-400 vehicle), or BAF312 (0.5, 1.5, 5.0 mg/kg/20-min solubilized in a 100% PEG-400 vehicle) were administered via three escalating 20-min infusions (0.011 mL/min) followed by a 1-hr post-treatment period. A blood sample was withdrawn at 20, 40, 60, and 120-minutes for analysis of plasma concentrations of the parent compound, and in the case of FTY720, also the phosphorylated metabolite, (S)-FTY720-P. Statistical significance (p<0.05) was based on a t-test comparing treatment change from baseline (baseline was defined as the period from −30 to 0 minutes) vs. vehicle controls change from baseline at each timepoint without adjustment for multiple comparisons. In a separate group of anesthetized rats in which left ventricular (LV) contractility was also recorded with a Millar pressure transducer introduced into the left ventricle, BAF312 was infused in the same dosing regimen as the studies described above (0.5, 1.5, 5.0 mg/kg/20-min solubilized in a 100% PEG-400 vehicle) and effects on LV dP/dtmax were recorded.

[3] = Plasma concentrations in repeat-dosing study, satellite rats; assay type: in vivo, rat; conditions: for Plasma concentration: rat, mean±SEM; for Plasma concentration at Tmax / Terminal plasma concentration at Tmax: satellite rats; for Plasma concentration at Tmax: day 1; for Terminal plasma concentration at Tmax: last day of study
Experimental: Mean arterial pressure was assessed in conscious, freely moving male Sprague Dawley rats (n = 6–8/group; Charles River) instrumented with telemetry transmitters (DSI-Ponemah) and housed in metabolism cages as previously described, [26]. Tested compounds were solubilized in a 0.5% Methylcellulose/0.015% Tween 80 vehicle that was also dosed alone (p.o./QD, 5 mL/kg) as a control in the study. FTY720 was administered p.o. at 0.3, 1.0, 3.0, 10.0 mg/kg p.o. as a single dose or p.o./QD at 0.5, 1.5, and 5.0 mg/kg in a chronic study. BAF312 was administered p.o/QD at 0.3, 3.0, and 30 mg/kg as a single dose and in a chronic study. Mean arterial pressure and heart rate are shown as 1-hr and/or 24-hr mean values±SEM as described in the results. Blood samples in satellite rats were withdrawn at various timepoints as described in the results for analysis of plasma concentrations of the parent compound and, in the case of FTY720, also the phosphorylated metabolite, (S)-FTY720-P. Statistical analysis for the single-dose acute studies was based on one-way ANOVA to compare the treatment groups vs. vehicle for each time period after dosing (0–24 hrs, 24–48 hrs, and 48–72 hrs); statistical significance (p<0.05) was detected by Dunnett’s post-hoc test to compare treatment with vehicle controls. The statistical analysis in the chronic studies were based on one-way ANOVA with repeated measures to compare the treatment arms; statistical significance (p<0.05) was detected by Dunnett’s post-hoc test to compare treatment with vehicle controls.

CCCCCCCCc1ccc(CC[C@](N)(CO)COP(=O)(O)O)cc1 [FTY720-P]
EC50 [1]: 26 nM
Plasma concentration ([2]; end of 0.1 mg/kg/20 min infusion, listed as phosphorylated FTY720, 0.1 mg/kg): 285 ± 87 nM
Plasma concentration ([2]; end of 0.3 mg/kg/20 min infusion, listed as phosphorylated FTY720, 0.3 mg/kg): 683 ± 214 nM
Plasma concentration ([2]; end of 1.0 mg/kg/20 min infusion, listed as phosphorylated FTY720, 1 mg/kg): 908 ± 264 nM
Plasma concentration ([2]; end of 60-min post-treatment period, listed as phosphorylated FTY720): 211 ± 17 nM
Plasma concentration ([3]; FTY720 0.5 mg/kg/d p.o., Day 1, 4 hr post-dose): 46 ± 5 nM
Plasma concentration ([3]; FTY720 0.5 mg/kg/d p.o., Day 1, 8 hr post-dose): 103 ± 24 nM
Plasma concentration ([3]; FTY720 0.5 mg/kg/d p.o., Day 1, 24 hr post-dose): 65 ± 23 nM
Plasma concentration ([3]; FTY720 0.5 mg/kg/d p.o., Terminal (last day), 0-hr): 141 ± 31 nM
Plasma concentration ([3]; FTY720 0.5 mg/kg/d p.o., Terminal (last day), 4 hr post-dose): 229 ± 40 nM
Plasma concentration ([3]; FTY720 0.5 mg/kg/d p.o., Terminal (last day), 8 hr post-dose): 478 ± 303 nM
Plasma concentration ([3]; FTY720 0.5 mg/kg/d p.o., Terminal (last day), 24 hr post-dose): 546 ± 359 nM
Plasma concentration ([3]; FTY720 1.5 mg/kg/d p.o., Day 1, 4 hr post-dose): 231 ± 1 nM
Plasma concentration ([3]; FTY720 1.5 mg/kg/d p.o., Day 1, 8 hr post-dose): 275 ± 55 nM
Plasma concentration ([3]; FTY720 1.5 mg/kg/d p.o., Day 1, 24 hr post-dose): 264 ± 79 nM
Plasma concentration ([3]; FTY720 1.5 mg/kg/d p.o., Terminal (last day), 0-hr): 690 ± 136 nM
Plasma concentration ([3]; FTY720 1.5 mg/kg/d p.o., Terminal (last day), 4 hr post-dose): 800 ± 77 nM
Plasma concentration ([3]; FTY720 1.5 mg/kg/d p.o., Terminal (last day), 8 hr post-dose): 647 ± 121 nM
Plasma concentration ([3]; FTY720 1.5 mg/kg/d p.o., Terminal (last day), 24 hr post-dose): 560 ± 70 nM
Plasma concentration ([3]; FTY720 5.0 mg/kg/d p.o., Day 1, 4 hr post-dose): 506 ± 74 nM
Plasma concentration ([3]; FTY720 5.0 mg/kg/d p.o., Day 1, 8 hr post-dose): 696 ± 279 nM
Plasma concentration ([3]; FTY720 5.0 mg/kg/d p.o., Day 1, 24 hr post-dose): 773 ± 55 nM
Plasma concentration ([3]; FTY720 5.0 mg/kg/d p.o., Terminal (last day), 0-hr): 2344 ± 356 nM
Plasma concentration ([3]; FTY720 5.0 mg/kg/d p.o., Terminal (last day), 4 hr post-dose): 2913 ± 238 nM
Plasma concentration ([3]; FTY720 5.0 mg/kg/d p.o., Terminal (last day), 8 hr post-dose): 1508 ± 316 nM
Plasma concentration ([3]; FTY720 5.0 mg/kg/d p.o., Terminal (last day), 24 hr post-dose): 1561 ± 230 nM
Plasma concentration at Tmax ([3]; FTY720 0.5 mg/kg/d p.o.): 103 ± 24 nM
Terminal plasma concentration at Tmax ([3]; FTY720 0.5 mg/kg/d p.o.): 546 ± 358 nM
Plasma concentration at Tmax ([3]; FTY720 1.5 mg/kg/d p.o.): 275 ± 55 nM
Terminal plasma concentration at Tmax ([3]; FTY720 1.5 mg/kg/d p.o.): 800 ± 77 nM
Plasma concentration at Tmax ([3]; FTY720 5.0 mg/kg/d p.o.): 773 ± 55 nM
Terminal plasma concentration at Tmax ([3]; FTY720 5.0 mg/kg/d p.o.): 2913 ± 92 nM
